From US20230115274A1, “COMPOUNDS AND COMPOSITIONS FOR TREATING CONDITIONS ASSOCIATED WITH STING ACTIVITY” (IFM Due, Inc., priority 2019, published 2023)

molecular target: T1, hSTING (Homo sapiens, UniProt Q86WV6, G230A/H232R/R293Q/R71H); experiment: STING reporter assay (luciferase) in THP1-Dual KO-IFNAR2 cells stimulated with 2′3′cGAMP; format: cell-based; conditions: 2′3′cGAMP 15 μM, 24 h, class symbols
T1 construct: host or cells: THP1-Dual KO-IFNAR2 cells
Procedure: STING pathway activation by the compounds described herein was measured using THP1-Dual™ cells (KO-IFNAR2).
THP1-Dual™ KO-IFNAR2 Cells (obtained from invivogen) were maintained in RPMI, 10% FCS, 5 ml P/S, 2 mM L-glut, 10 mM Hepes, and 1 mM sodium pyruvate. Compounds were spotted in empty 384 well tissue culture plates (Greiner 781182) by Echo for a final concentration of 0.0017-100 μM. Cells were plated into the TC plates at […], 2×10E6 cells/mL. For activation with STING ligand, 2′3′cGAMP (MW 718.38, obtained from Invivogen), was prepared in Optimem media.
The following solutions were prepared for each 1×384 plate: • Solution A: 2 mL Optimem with one of the following stimuli: • […] • Solution B: 2 mL Optimem with 60 μL Lipofectamine 2000->Incubate 5 min at RT
2 mL of solution A and 2 ml Solution B was mixed and incubated for 20 min at room temperature (RT). 20 uL of transfection solution (A+B) was added on top of the plated cells, with a final 2′3′cGAMP concentration of 15 μM. The plates were then centrifuged immediately at 340 g for 1 minute, after which they were incubated at 37° C., 5% CO2, >98% humidity for 24 h. Luciferase reporter activity was then measured. EC50 values were calculated by using standard methods known in the art.
Luciferase reporter assay: 10 μL of supernatant from the assay was transferred to white 384-plate with flat bottom and squared wells. One pouch of QUANTI-Luc™ Plus was dissolved in 25 mL of water. 100 μL of QLC Stabilizer per 25 mL of QUANTI-Luc™ Plus solution was added. 50 μL of QUANTI-Luc™ Plus/QLC solution per well was then added. Luminescence was measured on a Platereader (e.g., Spectramax I3X (Molecular Devices GF3637001)).
Luciferase reporter activity was then measured. EC50 values were calculated by using standard methods known in the art.

T1 sequence (Q86WV6 whole entry R71H/G230A/H232R/R293Q): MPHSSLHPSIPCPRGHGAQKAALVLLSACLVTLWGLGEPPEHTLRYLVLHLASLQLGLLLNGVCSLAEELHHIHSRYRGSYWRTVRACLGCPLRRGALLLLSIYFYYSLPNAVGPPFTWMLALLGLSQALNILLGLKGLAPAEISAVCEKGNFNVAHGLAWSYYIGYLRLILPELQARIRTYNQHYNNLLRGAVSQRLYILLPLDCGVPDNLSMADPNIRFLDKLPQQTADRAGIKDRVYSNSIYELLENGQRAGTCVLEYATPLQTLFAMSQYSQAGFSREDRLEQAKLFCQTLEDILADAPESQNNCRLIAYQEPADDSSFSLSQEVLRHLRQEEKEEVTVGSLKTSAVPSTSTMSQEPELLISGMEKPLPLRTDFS

SMILES | EC50
O=C(Nc1ccc(C2CCC(F)(F)CC2)nc1)Nc1c[nH]c2ncc(F)cc12 [Compound 116, 1-(6-(4,4-difluorocyclohexyl)pyridin-3-yl)-3-(5-fluoro-1H-pyrrolo[2,3-b]pyridin-3-yl)urea] | 200 to 1000 nM
O=C(Nc1ccc(N2CCC(F)(F)CC2)nc1)Nc1c[nH]c2ncc(F)cc12 [Compound 118, 1-(6-(4,4-difluoropiperidin-1-yl)pyridin-3-yl)-3-(5-fluoro-1H-pyrrolo[2,3-b]pyridin-3-yl)urea] | 200 to 1000 nM
O=C(Nc1ccc(C2CCC(F)(F)CC2)nc1)Nc1cn(C(=O)c2ccccc2)c2ncc(F)cc12 [Compound 121, 1-(1-benzoyl-5-fluoro-1H-pyrrolo[2,3-b]pyridin-3-yl)-3-(6-(4,4-difluorocyclohexyl)pyridin-3-yl)urea] | 200 to 1000 nM
CC(=O)n1cc(NC(=O)Nc2ccc(C3CCC(F)(F)CC3)nc2)c2cc(F)cnc21 [Compound 122, 1-(1-acetyl-5-fluoro-1H-pyrrolo[2,3-b]pyridin-3-yl)-3-(6-(4,4-difluorocyclohexyl)pyridin-3-yl)urea] | 200 to 1000 nM
Cc1cc(NC(=O)Nc2c[nH]c3cccnc23)cnc1C1CCC(F)(F)CC1 [Compound 136, 1-(6-(4,4-difluorocyclohexyl)-5-methylpyridin-3-yl)-3-(1H-pyrrolo[3,2-b]pyridin-3-yl)urea] | 5000 to 100000 nM
Cc1cc(NC(=O)Nc2c[nH]c3ncc(Cl)cc23)cnc1C1CCC(F)(F)CC1 [Compound 137, 1-(5-chloro-1H-pyrrolo[2,3-b]pyridin-3-yl)-3-(6-(4,4-difluorocyclohexyl)-5-methylpyridin-3-yl)urea] | 1000 to 5000 nM
CC(O)c1cc(NC(=O)Nc2c[nH]c3ncc(F)cc23)cnc1N1CCC(F)(F)CC1 (stereo not shown) [Compound 138, 1-(6-(4,4-difluoropiperidin-1-yl)-5-(1-hydroxyethyl)pyridin-3-yl)-3-(5-fluoro-1H-pyrrolo[2,3-b]pyridin-3-yl)urea] | 1000 to 5000 nM
CCc1ccc2[nH]cc(NC(=O)Nc3cnc(N4CCC(F)(F)CC4)c(C)c3)c2n1 [Compound 139, 1-(6-(4,4-difluoropiperidin-1-yl)-5-methylpyridin-3-yl)-3-(5-ethyl-1H-pyrrolo[3,2-b]pyridin-3-yl)urea] | 1000 to 5000 nM
COc1ccc2[nH]cc(NC(=O)Nc3cnc(C4CCC(F)(F)CC4)c(C#N)c3)c2n1 [Compound 140, 1-(5-cyano-6-(4,4-difluorocyclohexyl)pyridin-3-yl)-3-(5-methoxy-1H-pyrrolo[3,2-b]pyridin-3-yl)urea] | 200 to 1000 nM
COc1ccc2[nH]cc(NC(=O)Nc3cnc(N4CCC(F)(F)CC4)c(Cl)c3)c2n1 [Compound 141, 1-(5-chloro-6-(4,4-difluoropiperidin-1-yl)pyridin-3-yl)-3-(5-methoxy-1H-pyrrolo[3,2-b]pyridin-3-yl)urea] | 200 to 1000 nM
O=C(Nc1cnc(C2CCC(F)(F)CC2)c(Cl)c1)Nc1c[nH]c2cccnc12 [Compound 142, 1-(5-chloro-6-(4,4-difluorocyclohexyl)pyridin-3-yl)-3-(1H-pyrrolo[3,2-b]pyridin-3-yl)urea] | 200 to 1000 nM
O=C(Nc1cnc(C2CC(F)(F)C2)c(Cl)c1)Nc1c[nH]c2cccnc12 [Compound 143, 1-(5-chloro-6-(3,3-difluorocyclobutyl)pyridin-3-yl)-3-(1H-pyrrolo[3,2-b]pyridin-3-yl)urea] | 200 to 1000 nM
O=C(Nc1cnc(N2CCC(F)(F)CC2)c(Cl)c1)Nc1c[nH]c2ccc(Cl)nc12 [Compound 144, 1-(5-chloro-1H-pyrrolo[3,2-b]pyridin-3-yl)-3-(5-chloro-6-(4,4-difluoropiperidin-1-yl)pyridin-3-yl)urea] | 200 to 1000 nM
O=C(Nc1cnc(N2CCC(F)(F)CC2)c(Cl)c1)Nc1c[nH]c2cc(F)cnc12 [Compound 145, 1-(5-chloro-6-(4,4-difluoropiperidin-1-yl)pyridin-3-yl)-3-(6-fluoro-1H-pyrrolo[3,2-b]pyridin-3-yl)urea] | 200 to 1000 nM
Cc1cc(NC(=O)Nc2c[nH]c3cccnc23)cnc1N1CCC(F)(F)CC1 [Compound 146, 1-(6-(4,4-difluoropiperidin-1-yl)-5-methylpyridin-3-yl)-3-(1H-pyrrolo[3,2-b]pyridin-3-yl)urea] | 1000 to 5000 nM
O=C(Nc1cnc(N2CCC(F)(F)CC2)c(CCO)c1)Nc1c[nH]c2ncc(F)cc12 [Compound 147, 1-(6-(4,4-difluoropiperidin-1-yl)-5-(2-hydroxyethyl)pyridin-3-yl)-3-(5-fluoro-1H-pyrrolo[2,3-b]pyridin-3-yl)urea] | 5000 to 100000 nM
N#Cc1cc(NC(=O)Nc2c[nH]c3cccnc23)ccc1C1CCC(F)(F)CC1 [Compound 148, 1-(3-cyano-4-(4,4-difluorocyclohexyl)phenyl)-3-(1H-pyrrolo[3,2-b]pyridin-3-yl)urea] | 200 to 1000 nM
N#Cc1cc(NC(=O)Nc2c[nH]c3c(F)cncc23)ccc1C1CCC(F)(F)CC1 [Compound 149, 1-(3-cyano-4-(4,4-difluorocyclohexyl)phenyl)-3-(7-fluoro-1H-pyrrolo[3,2-c]pyridin-3-yl)urea] | 200 to 1000 nM
COc1ccc2[nH]cc(NC(=O)Nc3ccc(C4CCC(F)(F)CC4)c(C#N)c3)c2n1 [Compound 150, 1-(3-cyano-4-(4,4-difluorocyclohexyl)phenyl)-3-(5-methoxy-1H-pyrrolo[3,2-b]pyridin-3-yl)urea] | 200 to 1000 nM
N#Cc1cc(NC(=O)Nc2c[nH]c3ncc(Cl)cc23)cnc1C1CCC(F)(F)CC1 [Compound 151, 1-(5-chloro-1H-pyrrolo[2,3-b]pyridin-3-yl)-3-(5-cyano-6-(4,4-difluorocyclohexyl)pyridin-3-yl)urea] | 200 to 1000 nM
O=C(Nc1cc(Cl)c(C2CCC(F)(F)CC2)cn1)Nc1c[nH]c2ncc(F)cc12 [Compound 152, 1-(4-chloro-5-(4,4-difluorocyclohexyl)pyridin-2-yl)-3-(5-fluoro-1H-pyrrolo[2,3-b]pyridin-3-yl)urea] | 40 to 200 nM
COc1cc2c(NC(=O)Nc3ccc(C4CCC(F)(F)CC4)c(C#N)c3)c[nH]c2cn1 [Compound 154, 1-(3-cyano-4-(4,4-difluorocyclohexyl)phenyl)-3-(5-methoxy-1H-pyrrolo[2,3-c]pyridin-3-yl)urea] | 200 to 1000 nM
N#Cc1cc(NC(=O)Nc2c[nH]c3ncc(F)cc23)cnc1C1CCC(F)(F)CC1 [Compound 155, 1-(5-cyano-6-(4,4-difluorocyclohexyl)pyridin-3-yl)-3-(5-fluoro-1H-pyrrolo[2,3-b]pyridin-3-yl)urea] | 40 to 200 nM
N#Cc1cc(NC(=O)Nc2c[nH]c3ncc(F)cc23)cnc1N1CCC(F)(F)CC1 [Compound 157, 1-(5-cyano-6-(4,4-difluoropiperidin-1-yl)pyridin-3-yl)-3-(5-fluoro-1H-pyrrolo[2,3-b]pyridin-3-yl)urea] | 200 to 1000 nM
O=C(Nc1cnc(C2CCC(F)(F)CC2)c(CO)c1)Nc1c[nH]c2ncc(F)cc12 [Compound 158, 1-(6-(4,4-difluorocyclohexyl)-5-(hydroxymethyl)pyridin-3-yl)-3-(5-fluoro-1H-pyrrolo[2,3-b]pyridin-3-yl)urea] | 5000 to 100000 nM

same assay, conditions: 2′3′cGAMP 15 μM, 24 h, numeric bounds

SMILES | EC50
O=C(Nc1ccc(C2CCC(F)(F)CC2)nc1)Nc1cn(C2CCCNC2)c2ncc(F)cc12 (stereo not shown) [Compound 123, 1-(6-(4,4-difluorocyclohexyl)pyridin-3-yl)-3-(5-fluoro-1-(piperidin-3-yl)-1H-pyrrolo[2,3-b]pyridin-3-yl)urea] | > 30000 nM
CNC1CC(n2cc(NC(=O)Nc3ccc(C4CCC(F)(F)CC4)nc3)c3cc(F)cnc32)C1 (stereo not shown) [Compound 124, 1-(6-(4,4-difluorocyclohexyl)pyridin-3-yl)-3-(5-fluoro-1-(3-(methylamino)cyclobutyl)-1H-pyrrolo[2,3-b]pyridin-3-yl)urea] | > 30000 nM
Cn1cc(-n2cc(NC(=O)Nc3ccc(C4CCC(F)(F)CC4)nc3)c3cc(F)cnc32)cn1 [Compound 125, 1-(6-(4,4-difluorocyclohexyl)pyridin-3-yl)-3-(5-fluoro-1-(1-methyl-1H-pyrazol-4-yl)-1H-pyrrolo[2,3-b]pyridin-3-yl)urea] | > 30000 nM
Cn1cc(NC(=O)Nc2ccc(C3CCC(F)(F)CC3)nc2)c2cc(F)cnc21 [Compound 127, 1-(6-(4,4-difluorocyclohexyl)pyridin-3-yl)-3-(5-fluoro-1-methyl-1H-pyrrolo[2,3-b]pyridin-3-yl)urea] | > 30000 nM
O=C(Nc1ccc(C2CCC(F)(F)CC2)nc1)Nc1cn(C2CCNCC2)c2ncc(F)cc12 [Compound 128, 1-(6-(4,4-difluorocyclohexyl)pyridin-3-yl)-3-(5-fluoro-1-(piperidin-4-yl)-1H-pyrrolo[2,3-b]pyridin-3-yl)urea] | > 30000 nM
Cc1cc(NC(=O)Nc2c[nH]c3ncc(F)cc23)cnc1N1CC2(CC(O)C2)C1 [Compound 156, 1-(5-fluoro-1H-pyrrolo[2,3-b]pyridin-3-yl)-3-(6-(6-hydroxy-2-azaspiro[3.3]heptan-2-yl)-5-methylpyridin-3-yl)urea] | > 30000 nM
